Consider three compounds from patent US9840474B2, “Pyrimidine compounds and use as anti-cervical cancer thereof” (SICHUAN UNIVERSITY, priority 2014, dated 2017).

What all share (type): cell-based
Test [1] relates to human cervical carcinoma Caski cells. The test can be described thus: MTT cytotoxicity / inhibition test of cervical cancer Caski cells. The settings on record: for OD: Caski cells, MTT; for IC50 value: cervical cancer Caski cells. From the text:
(§1) In order to investigate in vitro effects of CH01 and CH02 against cervical cancer and HPV16 viruses, in the experiment, the cytotoxicity of above compounds, together with their effects on HPV16 E6 and E7 mRNA, is investigated by culture with human cervical cancer cells (HPV16 positive). Structures of test compounds are shown as follows:
(§2) [Experimental Method] • 1. Cytotoxicity: MTT method was used, and Reed-Muench method was used to calculate indexes median toxic concentration (TC50) and maximum non-toxic concentation (TC0). • 2. HPV16 E6 and E7 mRNA: The cell culture was treated for 48 h at maximum non-toxic concentration, and then the culture was terminated. Total RNA in cells was extracted, and effects of test samples on HPV16 E6 and E7 mRNA were measured using Real-time PCR method.
[Experimental Result] • 1. Inhibition Test of Cervical Cancer Caski Cells

The subject of a further test is HPV16 E6 mRNA. Nature of the test: Real-time PCR of HPV16 E6 mRNA expression in Caski cells. The note with it: for effect on HPV E6 mRNA in Caski cells / inhibitory activity on E6 compared with positive control cidofovir / E6 One independent tests (inhibitory rate) / E6 Two independent tests (inhibitory rate): Caski cells; for E6 One independent tests (inhibitory rate) / E6 Two independent tests (inhibitory rate) / inhibition at 0.2 µg/mL: 48 h; for E6 One independent tests (inhibitory rate): test one; for E6 Two independent tests (inhibitory rate): test two; for inhibition at 0.2 µg/mL: Human papillomavirus 16, Ca-Ski.
Description: as §1, §2
(§3) Effects of Samples on Expression of HPV16 E6 mRNA and HPV16 E7 mRNA in Caski Cells

The test system of the next test is HPV16 E7 mRNA. The test can be described thus: Real-time PCR of HPV16 E7 mRNA expression in Caski cells. The settings on record: for effect on HPV E7 mRNA in Caski cells / inhibitory activity on E7 compared with positive control cidofovir / E7 One independent tests (inhibitory rate) / E7 Two independent tests (inhibitory rate): Caski cells; for E7 One independent tests (inhibitory rate) / E7 Two independent tests (inhibitory rate) / inhibition at 0.2 µg/mL: 48 h; for E7 One independent tests (inhibitory rate): test one; for E7 Two independent tests (inhibitory rate): test two; for inhibition at 0.2 µg/mL: Human papillomavirus 16, Ca-Ski.
Description: as §1, §2, §3
A general note: In qPCR the cycle at which signal appears reflects the starting amount.

Like-named read-outs stand apart in the source and are kept apart here.

“4-(2-methoxybenzylamino)-5-formaldoxime-6-chloropyrimidine [CH02]”: the OD is 0.8357 in test [1] (0.097656 μg/ml); 0.78 in test [1] (0.195313 μg/ml); 0.4733 in test [1] (0.390625 μg/ml); 0.3837 in test [1] (0.78125 μg/ml); 0.313 in test [1] (1.5625 μg/ml); 0.2943 in test [1] (3.125 μg/ml). Moreover, the OD in test [1] (6.25 μg/ml) worked out at 0.2727; in test [1] (12.5 μg/ml), 0.2743; in test [1] (25 μg/ml) it was 0.2803; in test [1] (50 μg/ml) it was 0.3087; in test [1] (100 μg/ml), 0.3757; in test [1] (200 μg/ml) it was 0.5557. In test [1], the IC50 value result is listed as “about 0.4 μg/ml”. In addition, in the test on HPV16 E6 mRNA, the “effect on HPV E6 mRNA in Caski cells” value is reported as “showed inhibitory effects”. In addition, the “inhibitory activity on E6 compared with positive control cidofovir” value with HPV16 E6 mRNA is “better inhibitory activity than the positive control cidofovir”. Moreover, the “E6 One independent tests (inhibitory rate)” value with HPV16 E6 mRNA (0.067 μg/ml) is listed as 0.461; in the test with HPV16 E6 mRNA (0.2 μg/ml), 0.599. In addition, the “E6 Two independent tests (inhibitory rate)” value with HPV16 E6 mRNA (0.067 μg/ml) is recorded as 0.481; in the test with HPV16 E6 mRNA (0.2 μg/ml) it was 0.549. For the same compound, the “effect on HPV E7 mRNA in Caski cells” value in the test on HPV16 E7 mRNA is “showed inhibitory effects”. For the same compound, the “inhibitory activity on E7 compared with positive control cidofovir” value in the test with HPV16 E7 mRNA is listed as “better inhibitory activity than the positive control cidofovir”. Besides, the “E7 One independent tests (inhibitory rate)” value in the test on HPV16 E7 mRNA (0.067 μg/ml) worked out at 0.484; with HPV16 E7 mRNA (0.2 μg/ml), 0.516. In addition, the “E7 Two independent tests (inhibitory rate)” value with HPV16 E7 mRNA (0.067 μg/ml) is 0.488; with HPV16 E7 mRNA (0.2 μg/ml), 0.526.

Consider `Nc1ccn(C[C@@H](CO)OCP(=O)(O)O)c(=O)n1` [cidofovir, reference compound], for which the inhibition at 0.2 µg/mL with HPV16 E6 mRNA (read-out: E6 One independent tests (inhibitory rate)) worked out at 32.6%; in the test with HPV16 E6 mRNA (read-out: E6 Two independent tests (inhibitory rate)), 33.6%; in the test with HPV16 E7 mRNA (read-out: E7 One independent tests (inhibitory rate)), 32.1%; with HPV16 E7 mRNA (read-out: E7 Two independent tests (inhibitory rate)), 32.4%.

Take “4-(4-tert-butylbenzylamino)-5-formaldoxime-6-chloropyrimidine [CH01]”: the OD is listed as 0.8367 in test [1] (0.097656 μg/ml); 0.7847 in test [1] (0.195313 μg/ml); 0.6353 in test [1] (0.390625 μg/ml); 0.5667 in test [1] (0.78125 μg/ml); 0.488 in test [1] (1.5625 μg/ml); 0.4667 in test [1] (3.125 μg/ml). Moreover, the OD was found to be 0.4117 in test [1] (6.25 μg/ml); 0.3033 in test [1] (12.5 μg/ml); 0.283 in test [1] (25 μg/ml); 0.28 in test [1] (50 μg/ml); 0.2967 in test [1] (100 μg/ml); 0.4373 in test [1] (200 μg/ml). For the same compound, in test [1], the IC50 value entry is “about 1.5 μg/ml”. Besides, in the test with HPV16 E6 mRNA, the “effect on HPV E6 mRNA in Caski cells” value was “showed inhibitory effects”. In addition, the “inhibitory activity on E6 compared with positive control cidofovir” value in the test on HPV16 E6 mRNA is “better inhibitory activity than the positive control cidofovir”. In addition, the “E6 One independent tests (inhibitory rate)” value in the test on HPV16 E6 mRNA (0.067 μg/ml) is 0.489; in the test on HPV16 E6 mRNA (0.2 μg/ml), 0.577. In addition, the “E6 Two independent tests (inhibitory rate)” value with HPV16 E6 mRNA (0.067 μg/ml) was found to be 0.494; with HPV16 E6 mRNA (0.2 μg/ml), 0.553. Also, the “effect on HPV E7 mRNA in Caski cells” value in the test on HPV16 E7 mRNA was “showed inhibitory effects”. The “inhibitory activity on E7 compared with positive control cidofovir” value with HPV16 E7 mRNA was “better inhibitory activity than the positive control cidofovir”. Further, the “E7 One independent tests (inhibitory rate)” value is 0.488 in the test on HPV16 E7 mRNA (0.067 μg/ml) and 0.484 in the test on HPV16 E7 mRNA (0.2 μg/ml). The “E7 Two independent tests (inhibitory rate)” value is 0.455 with HPV16 E7 mRNA (0.067 μg/ml) and 0.449 with HPV16 E7 mRNA (0.2 μg/ml).
